Data from PubChem BioAssay (NCI).
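GI50 = concentration required for 50% inhibition of growth. TGI: concentration producing complete growth inhibition.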

Key:
Experiment in all cases: NCI anticancer screen, dose series, 384-well format
[1] = test system: 786-0 renal
[2] = test system: A498 renal
[3] = test system: A549 NSCLC
[4] = test system: ACHN renal
[5] = test system: BT-549 breast
[6] = test system: CAKI-1 renal
[7] = test system: CCRF-CEM leukemia
[8] = test system: COLO 205 colon
[9] = test system: DU-145 prostate
[10] = test system: EKVX NSCLC
[11] = test system: HCC-2998 colon
[12] = test system: HCT-116 colon
[13] = test system: HCT-15 colon
[14] = test system: HL-60(TB) leukemia
[15] = test system: HOP-62 NSCLC
[16] = test system: HOP-92 NSCLC
[17] = test system: HS 578T breast
[18] = test system: HT29 colon
[19] = test system: IGROV1 ovarian
[20] = test system: K-562 leukemia
[21] = test system: KM12 colon
[22] = test system: LOX IMVI melanoma
[23] = test system: M14 melanoma
[24] = test system: MALME-3M melanoma
[25] = test system: MCF7 breast
[26] = test system: MDA-MB-231 breast
[27] = test system: MDA-MB-435 melanoma
[28] = test system: MDA-MB-468 breast
[29] = test system: MOLT-4 leukemia
[30] = test system: NCI-H226 lung
[31] = test system: NCI-H23 lung
[32] = test system: NCI-H322M lung
[33] = test system: NCI-H460 NSCLC
[34] = test system: NCI-H522 lung
[35] = test system: NCI/ADR-RES ovarian
[36] = test system: OVCAR-3 ovarian
[37] = test system: OVCAR-4 ovarian
[38] = test system: OVCAR-5 ovarian
[39] = test system: OVCAR-8 ovarian
[40] = test system: PC-3 prostate
[41] = test system: RPMI-8226 leukemia
[42] = test system: RXF 393 renal
[43] = test system: SF-268 CNS
[44] = test system: SF-295 CNS
[45] = test system: SF-539 CNS
[46] = test system: SK-MEL-2 melanoma
[47] = test system: SK-MEL-28 melanoma
[48] = test system: SK-MEL-5 melanoma
[49] = test system: SK-OV-3 ovarian
[50] = test system: SN12C renal
[51] = test system: SNB-19 CNS
[52] = test system: SNB-75 CNS
[53] = test system: SW-620 colon
[54] = test system: T-47D breast
[55] = test system: TK-10 renal
[56] = test system: U251 glioblastoma
[57] = test system: UACC-257 melanoma
[58] = test system: UACC-62 melanoma
[59] = test system: UO-31 renal
[60] = test system: SR leukemia

SMILES: Cc1cc(C(=O)Nc2nc3cccc(Cl)c3n2[C@@H]2CCCCN(C(=O)/C=C/CN(C)C)C2)ccn1
- GI50 [1]: 2.98 µM
- TGI [1]: 13.1 µM
- GI50 [2]: 1.45 µM
- TGI [2]: 10.8 µM
- GI50 [3]: 2.49 µM
- TGI [3]: 13.6 µM
- GI50 [4]: 1.48 µM
- TGI [4]: 12.5 µM
- GI50 [5]: 2.66 µM
- TGI [5]: 9.69 µM
- GI50 [6]: 1.44 µM
- TGI [6]: 14.8 µM
- GI50 [7]: 1.56 µM
- TGI [7]: 2.98 µM
- GI50 [8]: 4.23 µM
- TGI [8]: 15.6 µM
- GI50 [9]: 2.34 µM
- TGI [9]: 13.6 µM
- GI50 [10]: 0.648 µM
- TGI [10]: 3.73 µM
- GI50 [11]: 2.44 µM
- TGI [11]: 6.43 µM
- GI50 [12]: 3.17 µM
- TGI [12]: 10.9 µM
- GI50 [13]: 2.73 µM
- TGI [13]: 10.7 µM
- GI50 [14]: 1.49 µM
- TGI [14]: 2.82 µM
- GI50 [15]: 1.93 µM
- TGI [15]: 5.59 µM
- GI50 [16]: 2.93 µM
- TGI [16]: 13.9 µM
- GI50 [17]: 1.62 µM
- TGI [17]: 6.37 µM
- GI50 [18]: 4.41 µM
- TGI [18]: 16.1 µM
- GI50 [19]: 0.697 µM
- TGI [19]: 2.79 µM
- GI50 [20]: 3.03 µM
- TGI [20]: 12.4 µM
- GI50 [21]: 3.36 µM
- TGI [21]: 12.5 µM
- GI50 [22]: 2.24 µM
- TGI [22]: 5.51 µM
- GI50 [23]: 2.75 µM
- TGI [23]: 11.5 µM
- GI50 [24]: 2.76 µM
- TGI [24]: 10.8 µM
- GI50 [25]: 2.51 µM
- TGI [25]: 11.3 µM
- GI50 [26]: 4.34 µM
- TGI [26]: 17 µM
- GI50 [27]: 3.35 µM
- TGI [27]: 12.3 µM
- GI50 [28]: 0.111 µM
- TGI [28]: 0.507 µM
- GI50 [29]: 1.4 µM
- TGI [29]: 2.72 µM
- GI50 [30]: 3.39 µM
- TGI [30]: 15.9 µM
- GI50 [31]: 2.83 µM
- TGI [31]: 10.5 µM
- GI50 [32]: 0.367 µM
- TGI [32]: 10.1 µM
- GI50 [33]: 2.99 µM
- TGI [33]: 10.6 µM
- GI50 [34]: 0.12 µM
- TGI [34]: 2.07 µM
- GI50 [35]: 2.3 µM
- TGI [35]: 9.63 µM
- GI50 [36]: 1.46 µM
- TGI [36]: 4.15 µM
- GI50 [37]: 3.56 µM
- TGI [37]: 14.7 µM
- GI50 [38]: 3.08 µM
- TGI [38]: 14.2 µM
- GI50 [39]: 3.15 µM
- TGI [39]: 13.7 µM
- GI50 [40]: 3.45 µM
- TGI [40]: 14.3 µM
- GI50 [41]: 1.4 µM
- TGI [41]: 3.77 µM
- GI50 [42]: 4.04 µM
- TGI [42]: 15.3 µM
- GI50 [43]: 3.02 µM
- TGI [43]: 14 µM
- GI50 [44]: 4.09 µM
- TGI [44]: 14.5 µM
- GI50 [45]: 3.23 µM
- TGI [45]: 11 µM
- GI50 [46]: 2.43 µM
- TGI [46]: 7.52 µM
- GI50 [47]: 7.02 µM
- TGI [47]: 20.1 µM
- GI50 [48]: 1.71 µM
- TGI [48]: 4.83 µM
- GI50 [49]: 0.928 µM
- TGI [49]: 10.2 µM
- GI50 [50]: 1.79 µM
- TGI [50]: 13.9 µM
- GI50 [51]: 3.49 µM
- TGI [51]: 14.9 µM
- GI50 [52]: 5.5 µM
- TGI [52]: 17.9 µM
- GI50 [53]: 2.93 µM
- TGI [53]: 8.65 µM
- GI50 [54]: 2.65 µM
- TGI [54]: 17.3 µM
- GI50 [55]: 0.494 µM
- TGI [55]: 7.41 µM
- GI50 [56]: 2.61 µM
- TGI [56]: 8.17 µM
- GI50 [57]: 2.56 µM
- TGI [57]: 8.75 µM
- GI50 [58]: 3.62 µM
- TGI [58]: 14.1 µM
- GI50 [59]: 2.05 µM
- TGI [59]: 12.9 µM

SMILES: C[C@@H](N)C1CCC(C(=O)Nc2ccncc2)CC1 (stereo partly specified)
- GI50 [1]: > 100 µM
- TGI [1]: > 100 µM
- GI50 [2]: > 100 µM
- TGI [2]: > 100 µM
- GI50 [3]: > 100 µM
- TGI [3]: > 100 µM
- GI50 [4]: > 100 µM
- TGI [4]: > 100 µM
- GI50 [5]: 25.9 µM
- TGI [5]: > 100 µM
- GI50 [6]: > 100 µM
- TGI [6]: > 100 µM
- GI50 [7]: > 100 µM
- TGI [7]: > 100 µM
- GI50 [8]: > 100 µM
- TGI [8]: > 100 µM
- GI50 [9]: > 100 µM
- TGI [9]: > 100 µM
- GI50 [10]: > 100 µM
- TGI [10]: > 100 µM
- GI50 [11]: 85.3 µM
- TGI [11]: > 100 µM
- GI50 [12]: > 100 µM
- TGI [12]: > 100 µM
- GI50 [13]: > 100 µM
- TGI [13]: > 100 µM
- GI50 [14]: 64 µM
- TGI [14]: > 100 µM
- GI50 [15]: 77.4 µM
- TGI [15]: > 100 µM
- GI50 [16]: 75.8 µM
- TGI [16]: > 100 µM
- GI50 [17]: 38.5 µM
- TGI [17]: > 100 µM
- GI50 [18]: 68.4 µM
- TGI [18]: > 100 µM
- GI50 [19]: 80 µM
- TGI [19]: > 100 µM
- GI50 [20]: 39.9 µM
- TGI [20]: > 100 µM
- GI50 [21]: > 100 µM
- TGI [21]: > 100 µM
- GI50 [22]: > 100 µM
- TGI [22]: > 100 µM
- GI50 [23]: > 100 µM
- TGI [23]: > 100 µM
- GI50 [24]: > 100 µM
- TGI [24]: > 100 µM
- GI50 [25]: 60.3 µM
- TGI [25]: > 100 µM
- GI50 [26]: > 100 µM
- TGI [26]: > 100 µM
- GI50 [27]: > 100 µM
- TGI [27]: > 100 µM
- GI50 [28]: 31 µM
- TGI [28]: > 100 µM
- GI50 [29]: 50.7 µM
- TGI [29]: > 100 µM
- GI50 [30]: > 100 µM
- TGI [30]: > 100 µM
- GI50 [31]: > 100 µM
- TGI [31]: > 100 µM
- GI50 [32]: > 100 µM
- TGI [32]: > 100 µM
- GI50 [33]: > 100 µM
- TGI [33]: > 100 µM
- GI50 [34]: > 100 µM
- TGI [34]: > 100 µM
- GI50 [35]: > 100 µM
- TGI [35]: > 100 µM
- GI50 [36]: > 100 µM
- TGI [36]: > 100 µM
- GI50 [37]: > 100 µM
- TGI [37]: > 100 µM
- GI50 [38]: > 100 µM
- TGI [38]: > 100 µM
- GI50 [40]: > 100 µM
- TGI [40]: > 100 µM
- GI50 [41]: 88.4 µM
- TGI [41]: > 100 µM
- GI50 [42]: 40.9 µM
- TGI [42]: > 100 µM
- GI50 [43]: 69.7 µM
- TGI [43]: > 100 µM
- GI50 [44]: 77.8 µM
- TGI [44]: > 100 µM
- GI50 [45]: > 100 µM
- TGI [45]: > 100 µM
- GI50 [46]: > 100 µM
- TGI [46]: > 100 µM
- GI50 [47]: > 100 µM
- TGI [47]: > 100 µM
- GI50 [48]: > 100 µM
- TGI [48]: > 100 µM
- GI50 [49]: > 100 µM
- TGI [49]: > 100 µM
- GI50 [50]: > 100 µM
- TGI [50]: > 100 µM
- GI50 [51]: > 100 µM
- TGI [51]: > 100 µM
- GI50 [52]: 55.9 µM
- TGI [52]: > 100 µM
- GI50 [60]: 7.94 µM
- TGI [60]: 21.9 µM
- GI50 [53]: 92 µM
- TGI [53]: > 100 µM
- GI50 [54]: 99.3 µM
- TGI [54]: > 100 µM
- GI50 [55]: > 100 µM
- TGI [55]: > 100 µM
- GI50 [56]: 87.8 µM
- TGI [56]: > 100 µM
- GI50 [57]: > 100 µM
- TGI [57]: > 100 µM
- GI50 [58]: > 100 µM
- TGI [58]: > 100 µM
- GI50 [59]: > 100 µM
- TGI [59]: > 100 µM
